Measurements taken from ChEMBL document CHEMBL5120868, “Tuaimenal A, a Meroterpene from the Irish Deep-Sea Soft Coral Duva florida, Displays Inhibition of the SARS-CoV-2 3CLpro Enzyme” (J Nat Prod, 2022).
pIC50: −log10 of the molar value.

Columns and labels:
[1] = target: Replicase polyprotein 1ab (Severe acute respiratory syndrome coronavirus 2) (UniProt P0DTD1); experiment: Inhibition of recombinant SARS-CoV-2 3CLpro expressed in Escherichia coli BL21 at […] using LGSAVLQ-rhodamine 110-dp as fluorogenic substrate preincubated for 15 mins followed by substrate addition by spectrophotometry analysis relative to control
[2] = target: Replicase polyprotein 1ab (Severe acute respiratory syndrome coronavirus 2) (UniProt P0DTD1); experiment: Inhibition of recombinant SARS-CoV-2 3CLpro expressed in Escherichia coli BL21 at 20 uM using LGSAVLQ-rhodamine 110-dp as fluorogenic substrate preincubated for 15 mins followed by substrate addition by spectrophotometry analysis relative to control
[3] = target: Replicase polyprotein 1ab (Severe acute respiratory syndrome coronavirus 2, UniProt P0DTD1); experiment: Inhibition of recombinant SARS-CoV-2 3CLpro expressed in Escherichia coli BL21 using LGSAVLQ-rhodamine 110-dp as fluorogenic substrate preincubated for 15 mins followed by substrate addition by spectrophotometry analysis

Row | Compound | inhibition [1] [%] | inhibition [2] [%] | pIC50 [3]
1 | NCCc1ccc(S(=O)(=O)F)cc1 | 100 |  | 
2 | CC(C)=CCC/C(C)=C/CC[C@]1(C)C=Cc2c(C=O)c(O)c(C)c(O)c2O1 |  | 40 | 4.68
